Data from patent US7531646B2, “β-D-ribosidase activity indicators with a chromogenic substrate” (priority 2001, dated 2009).
Counter-ions that a name gives are not always drawn.

How the values were obtained:
Hafnia alvei = assay: Substrate hydrolysis on Columbia agar; type: cell-based; conditions: 300 mg/l, 18 hours
C. freundii = assay: Substrate hydrolysis on Columbia agar; type: cell-based; conditions: 300 mg/l, 18 hours
C. diversus = assay: Substrate hydrolysis on Columbia agar; type: cell-based; conditions: 300 mg/l, 18 hours
Serratia spp. = assay: Substrate hydrolysis on Columbia agar; type: cell-based; conditions: 300 mg/l, 18 hours
E. aerogenes = assay: Substrate hydrolysis on Columbia agar; type: cell-based; conditions: 300 mg/l, 18 hours
A. lwoffii = assay: Substrate hydrolysis on Columbia agar; type: cell-based; conditions: A. lwoffii ATCC 15309; 300 mg/l; 18 hours
M. morganii = assay: Substrate hydrolysis on Columbia agar; type: cell-based; conditions: 300 mg/l, 18 hours
[1] = system: Providencia alcalifaciens; assay: Substrate hydrolysis on Columbia agar; type: cell-based; conditions: 300 mg/l, 18 hours
P. mirabilis = assay: Substrate hydrolysis on Columbia agar; type: cell-based; conditions: 300 mg/l, 18 hours
P. vulgaris = assay: Substrate hydrolysis on Columbia agar; type: cell-based; conditions: 300 mg/l, 18 hours
Vibrio parahaemolyticus = assay: Substrate hydrolysis on Columbia agar; type: cell-based; conditions: 300 mg/l, 18 hours
Vibrio cholerae = assay: Substrate hydrolysis on Columbia agar; type: cell-based; conditions: 300 mg/l, 18 hours
Salmonella motevideo = assay: Substrate hydrolysis on Columbia agar; type: cell-based; conditions: Salmonella motevideo SAX 55; 300 mg/l; 18 hours
Source text: This was achieved using a densitometer.
The same method was used as in Example 1.

Streptococcus oralis = assay: Substrate hydrolysis on Columbia agar; type: cell-based; conditions: Streptococcus oralis NCTC11427; 300 mg/l; 18 hours
[2] = system: Streptococcus constellatus; assay: Substrate hydrolysis on Columbia agar; type: cell-based; conditions: Streptococcus constellatus NCTC 11325; 300 mg/l; 18 hours
Streptococcus gordonii = assay: Substrate hydrolysis on Columbia agar; type: cell-based; conditions: Streptococcus gordonii NCTC 7865; 300 mg/l; 18 hours
Streptococcus pneumoniae = assay: Substrate hydrolysis on Columbia agar; type: cell-based; conditions: Streptococcus pneumoniae NCTC 7465; 300 mg/l; 18 hours
[3] = system: Haemolytic streptococcus A; assay: Substrate hydrolysis on Columbia agar; type: cell-based; conditions: 300 mg/l, 18 hours
[4] = system: Haemolytic streptococcus G; assay: Substrate hydrolysis on Columbia agar; type: cell-based; conditions: 300 mg/l, 18 hours
Listeria seerigeri = assay: Substrate hydrolysis on Columbia agar; type: cell-based; conditions: Listeria seerigeri PHLS wild; 300 mg/l; 18 hours
Listeria ivanovii = assay: Substrate hydrolysis on Columbia agar; type: cell-based; conditions: Listeria ivanovii PHLS wild; 300 mg/l; 18 hours
[5] = system: Arcanobacterium haemolyticus; assay: Substrate hydrolysis on Columbia agar; type: cell-based; conditions: Arcanobacterium haemolyticus NCTC 52; 300 mg/l; 18 hours
C. diphtheriae = assay: Substrate hydrolysis on Columbia agar; type: cell-based, Corynebacterium diphtheriae; conditions: 300 mg/l, 18 hours
[6] = system: Staphylococcus haemolyticus; assay: Substrate hydrolysis on Columbia agar; type: cell-based; conditions: 300 mg/l, 18 hours
Enterococcus raffinosis = assay: Substrate hydrolysis on Columbia agar; type: cell-based; conditions: Enterococcus raffinosis NCTC 13192; 300 mg/l; 18 hours
Enterococcus mundtii = assay: Substrate hydrolysis on Columbia agar; type: cell-based; conditions: Enterococcus mundtii NCTC 12363; 300 mg/l; 18 hours
Enterococcus faecium = assay: Substrate hydrolysis on Columbia agar; type: cell-based; conditions: 300 mg/l, 18 hours
Gram negative bacteria = assay: Substrate hydrolysis on Columbia agar, summary of screen; type: cell-based

O=c1cc(-c2ccc(OC3OC(CO)C(O)C3O)c(O)c2)oc2ccccc12 [DHF-riboside, 3′,4′-dihydroxyflavone-4′-β-D-ribofuranoside Sodium Salt]
Hydrolysis by Gram negative bacteria (Hafnia alvei; Hafnia alvei HAL 2): ++
Hydrolysis by Gram negative bacteria (Hafnia alvei; Hafnia alvei NCTC 8105): ++
Hydrolysis by Gram negative bacteria (C. freundii; C. freundii CFR 1): ++
Hydrolysis by Gram negative bacteria (C. freundii; C. freundii CFR 2): ++
Hydrolysis by Gram negative bacteria (C. freundii; C. freundii CFR 3): ++
Hydrolysis by Gram negative bacteria (C. freundii; C. freundii CFR 4): ++
Hydrolysis by Gram negative bacteria (C. freundii; C. freundii NCTC 9750): ++
Hydrolysis by Gram negative bacteria (C. diversus; C. diversus CDI 1): ++
Hydrolysis by Gram negative bacteria (C. diversus; C. diversus CDI 2): ++
Hydrolysis by Gram negative bacteria (Serratia spp.; Serratia spp. SEX 1): ++
Hydrolysis by Gram negative bacteria (Serratia spp.; Serratia spp. SEX 2): ++
Hydrolysis by Gram negative bacteria (Serratia spp.; Serratia spp. SEX 3): ++
Hydrolysis by Gram negative bacteria (Serratia spp.; Serratia spp. SEX 4): ++
Hydrolysis by Gram negative bacteria (E. aerogenes; E. aerogenes EAE 1): ++
Hydrolysis by Gram negative bacteria (E. aerogenes; E. aerogenes NCIMB 10102): ++
Hydrolysis by Gram negative bacteria (A. lwoffii): −
Hydrolysis by Gram negative bacteria (M. morganii; M. morganii MMO 1): +
Hydrolysis by Gram negative bacteria (M. morganii; M. morganii MMO 2): +
Hydrolysis by Gram negative bacteria (M. morganii; M. morganii NCTC 235): −
Hydrolysis by Gram negative bacteria ([1]; Providencia alcalifaciens PAL 1): +
Hydrolysis by Gram negative bacteria ([1]; Providencia alcalifaciens PAL 2): −
Hydrolysis by Gram negative bacteria (P. mirabilis; P. mirabilis NCTC 10975): −
Hydrolysis by Gram negative bacteria (P. mirabilis; P. mirabilis PMI 1): −
Hydrolysis by Gram negative bacteria (P. mirabilis; P. mirabilis PMI 2): −
Hydrolysis by Gram negative bacteria (P. vulgaris; P. vulgaris PVU 2): −
Hydrolysis by Gram negative bacteria (P. vulgaris; P. vulgaris PVU 4): −
Hydrolysis by Gram negative bacteria (P. vulgaris; P. vulgaris PVU 5): −
Hydrolysis by Gram negative bacteria (Vibrio parahaemolyticus; Vibrio parahaemolyticus NCTC 10441): −
Hydrolysis by Gram negative bacteria (Vibrio parahaemolyticus; Vibrio parahaemolyticus NCTC 10884): −
Hydrolysis by Gram negative bacteria (Vibrio parahaemolyticus; Vibrio parahaemolyticus NCTC 10903): −
Hydrolysis by Gram negative bacteria (Vibrio parahaemolyticus; Vibrio parahaemolyticus NCTC 11344): −
Hydrolysis by Gram negative bacteria (Vibrio parahaemolyticus; Vibrio parahaemolyticus NCTC 12205): −
Hydrolysis by Gram negative bacteria (Vibrio cholerae; Vibrio cholera NCTC 6585): −
Hydrolysis by Gram negative bacteria (Vibrio cholerae; Vibrio cholera NCTC 7270): −
Hydrolysis by Gram negative bacteria (Vibrio cholerae; Vibrio cholera NCTC 8021): −
Hydrolysis by Gram negative bacteria (Vibrio cholerae; Vibrio cholera NCTC 10732): −
Hydrolysis by Gram negative bacteria (Vibrio cholerae; Vibrio cholera NCTC 12945): −
Hydrolysis by Gram negative bacteria (Vibrio cholerae; Vibrio cholerae NCTC 7254): −
Hydrolysis by Gram negative bacteria (Vibrio cholerae; Vibrio cholerae NCTC 8042): −
Hydrolysis by Gram negative bacteria (Vibrio cholerae; Vibrio cholerae NCTC 10255): −
Hydrolysis by Gram negative bacteria (Vibrio cholerae; Vibrio cholerae NCTC 10954): −
Hydrolysis by Gram negative bacteria (Salmonella motevideo): ++
Hydrolysis by Gram positive organisms (Streptococcus oralis): −
Hydrolysis by Gram positive organisms [2]: −
Hydrolysis by Gram positive organisms (Streptococcus gordonii): −
Hydrolysis by Gram positive organisms (Streptococcus pneumoniae): −
Hydrolysis by Gram positive organisms ([3]; Haemolytic streptococcus A 1): −
Hydrolysis by Gram positive organisms ([3]; Haemolytic streptococcus A 2): −
Hydrolysis by Gram positive organisms ([3]; Haemolytic streptococcus A 3): −
Hydrolysis by Gram positive organisms ([4]; Haemolytic streptococcus G 1): −
Hydrolysis by Gram positive organisms ([4]; Haemolytic streptococcus G 2): −
Hydrolysis by Gram positive organisms ([4]; Haemolytic streptococcus G 3): +
Hydrolysis by Gram positive organisms (Listeria seerigeri): −
Hydrolysis by Gram positive organisms (Listeria ivanovii): +
Hydrolysis by Gram positive organisms [5]: +
Hydrolysis by Gram positive organisms (C. diphtheriae; C. diphtheriae NCTC 3987): +
Hydrolysis by Gram positive organisms (C. diphtheriae; C. diphtheriae NCTC 10356): ++
Hydrolysis by Gram positive organisms (C. diphtheriae; C. diphtheriae NCTC 11397): ++
Hydrolysis by Gram positive organisms (C. diphtheriae; Corynebacterium diphtheria NEQAS): ++
Hydrolysis by Gram positive organisms ([6]; Staphylococcus haemolyticus RB 66): +
Hydrolysis by Gram positive organisms ([6]; Staphylococcus haemolyticus RB 67): +
Hydrolysis by Gram positive organisms ([6]; Staphylococcus haemolyticus RB 68): +
Hydrolysis by Gram positive organisms ([6]; Staphylococcus haemolyticus RB 69): +
Hydrolysis by Gram positive organisms ([6]; Staphylococcus haemolyticus RB 70): +
Hydrolysis by Gram positive organisms (Enterococcus raffinosis): +
Hydrolysis by Gram positive organisms (Enterococcus mundtii): +
Hydrolysis by Gram positive organisms (Enterococcus faecium; Enterococcus faecium 1): −
Hydrolysis by Gram positive organisms (Enterococcus faecium; Enterococcus faecium 2): −
Hydrolysis by Gram positive organisms (Enterococcus faecium; Enterococcus faecium 3): −
Hydrolysis by Gram positive organisms (Enterococcus faecium; Enterococcus faecium 4): +
Hydrolysis by Gram positive organisms (Enterococcus faecium; Enterococcus faecium 5): −
Hydrolysis by Gram positive organisms (Enterococcus faecium; Enterococcus faecium 6): +
Hydrolysis by Gram positive organisms (Enterococcus faecium; Enterococcus faecium 7): −
Hydrolysis by Gram positive organisms (Enterococcus faecium; Enterococcus faecium 121285 - wild ′99): −
Gram negative bacteria tested that hydrolysed the substrate (Gram negative bacteria; of 120 Gram negative bacteria tested, 300 mg/l, 18 hours): 68.3%
colouration and diffusion of positive strains (Gram negative bacteria; positive Gram negative strains, agar): clearly visible black chelate which remained restricted to bacterial colonies without diffusion into the surrounding agar
